Results taken from ChEMBL document CHEMBL6071137, “Synthesis and biological studies of 2-aminothiophene derivatives as positive allosteric modulators of glucagon-like peptide 1 receptor” (2024).
Active and inactive are the calls of the source. The rule behind the calls is not given here.

Tests used:
[1] = target: Glucagon-like peptide 1 receptor (Homo sapiens) (UniProt P43220); experiment: Positive allosteric modulation of human GLP-1 receptor in HEK cells expressing luciferase2P assessed as cAMP level incubated for 4 hrs by luciferase based assay relative to GLP-1; assay type: functional, cell-based; design: concentration or dose not given beside the values; settings: filed as positive allosteric modulator
[2] = target: Glucagon-like peptide 1 receptor (Homo sapiens) (UniProt P43220); experiment: Positive allosteric modulation of human GLP-1 receptor in HEK cells expressing luciferase2P assessed as fold increase in GLP-1R activity incubated for 4 hrs in presence of GLP-1 by luciferase based assay relative to GLP-1 alone; assay type: cell-based; settings: filed as positive allosteric modulator
Mus musculus [3] = experiment: Anti-diabetic activity against overnight-fasted male CD1 mouse assessed as reduction in blood glucose concentration at 10 mg/kg, ip preadministered with compound for 45 mins followed by 2.5 g/kg dextrose addition and measured after 60 mins by iGTT test; assay type: functional, organism-based; settings: time 105.0 min
[4] = target: Glucagon receptor (Homo sapiens) (UniProt P47871); experiment: Positive allosteric modulation of glucagon receptor (unknown origin) transfected in HEK cells expressing luciferase2P assessed as increase in luciferase activity; assay type: cell-based; settings: filed as positive allosteric modulator
[5] = Induction of glucose dependent insulin secretion in rat INS-1 832/13 cells expressing GLP-1R assessed as fold increase at 5 uM starved for 2 hrs in KRB buffer followed by 16.7 mM of glucose addition and measured after 90 mins in presence of GLP-1 by ELISA; assay type: functional, INS1(832/13); settings: 1.5 h
[6] = target: Glucagon-like peptide 1 receptor (Homo sapiens) (UniProt P43220); experiment: Positive allosteric modulation of human GLP-1 receptor in HEK cells expressing luciferase2P at 5 uM incubated for 4 hrs in presence of varying concentrations of GLP-1 by luciferase based assay; assay type: cell-based; settings: filed as positive allosteric modulator
Mus musculus [7] = experiment: Anti-diabetic activity against overnight-fasted male CD1 mouse assessed as reduction in blood glucose concentration at 5 to 30 mg/kg, ip preadministered with compound for 45 mins followed by 2.5 g/kg dextrose addition and measured after 60 mins by iGTT test; assay type: functional, organism-based; settings: dose 5-30 mg/kg, time 105.0 min
Mus musculus [8] = experiment: Anti-diabetic activity against overnight-fasted male CD1 mouse assessed as reduction in blood glucose concentration at 10 to 30 mg/kg, ip preadministered with compound for 45 mins followed by 2.5 g/kg dextrose addition and measured after 30 mins by iGTT test; assay type: functional, organism-based; settings: dose 10-30 mg/kg, time 75.0 min
[9] = target: T1, Gastric inhibitory polypeptide receptor (Homo sapiens) (UniProt P48546); experiment: Positive allosteric modulation of GIPR (unknown origin) transfected in HEK cells expressing luciferase2P assessed as increase in luciferase activity; assay type: cell-based; settings: filed as positive allosteric modulator
T1 sequence (whole entry): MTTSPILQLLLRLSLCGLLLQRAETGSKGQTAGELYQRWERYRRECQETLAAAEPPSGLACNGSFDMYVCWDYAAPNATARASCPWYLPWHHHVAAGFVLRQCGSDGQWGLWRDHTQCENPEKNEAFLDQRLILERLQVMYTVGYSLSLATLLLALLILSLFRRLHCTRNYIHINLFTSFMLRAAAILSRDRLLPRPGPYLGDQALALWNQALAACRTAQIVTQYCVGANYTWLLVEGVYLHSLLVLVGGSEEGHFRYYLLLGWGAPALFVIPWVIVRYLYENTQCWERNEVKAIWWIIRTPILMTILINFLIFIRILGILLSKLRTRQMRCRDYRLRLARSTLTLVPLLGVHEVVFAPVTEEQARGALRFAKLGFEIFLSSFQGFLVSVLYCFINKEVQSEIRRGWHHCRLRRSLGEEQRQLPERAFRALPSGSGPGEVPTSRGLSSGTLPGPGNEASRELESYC

Mus musculus [10] = experiment: Anti-diabetic activity against overnight-fasted male CD1 mouse assessed as reduction in blood glucose concentration at 10 mg/kg, ip preadministered with compound for 45 mins followed by 2.5 g/kg dextrose addition and measured after 60 mins in the presence of sitagliptin by iGTT test relative to control; assay type: functional; design: scale not given: the % may be the effect or the level left; settings: time 105 min, 1.75 h
[11] = target: Glucagon-like peptide 1 receptor (Homo sapiens) (UniProt P43220); experiment: Positive allosteric modulation of human GLP-1 receptor in HEK cells expressing luciferase2P incubated for 4 hrs in presence of 10 nM of GLP-1 by luciferase based assay; assay type: cell-based; settings: filed as positive allosteric modulator, dose 0.78-100 µM
Mus musculus [12] = experiment: Anti-diabetic activity against overnight-fasted male CD1 mouse assessed as reduction in blood glucose concentration at 5 mg/kg, ip preadministered with compound for 45 mins followed by 2.5 g/kg dextrose addition and measured after 60 mins by iGTT test; assay type: functional, organism-based; settings: time 105.0 min
[13] = target: T2, Vasoactive intestinal polypeptide receptor 1 (Homo sapiens) (UniProt P32241); experiment: Positive allosteric modulation of VIPR1 (unknown origin) transfected in HEK cells expressing luciferase2P assessed as increase in luciferase activity; assay type: cell-based; settings: filed as positive allosteric modulator
T2 sequence (whole entry): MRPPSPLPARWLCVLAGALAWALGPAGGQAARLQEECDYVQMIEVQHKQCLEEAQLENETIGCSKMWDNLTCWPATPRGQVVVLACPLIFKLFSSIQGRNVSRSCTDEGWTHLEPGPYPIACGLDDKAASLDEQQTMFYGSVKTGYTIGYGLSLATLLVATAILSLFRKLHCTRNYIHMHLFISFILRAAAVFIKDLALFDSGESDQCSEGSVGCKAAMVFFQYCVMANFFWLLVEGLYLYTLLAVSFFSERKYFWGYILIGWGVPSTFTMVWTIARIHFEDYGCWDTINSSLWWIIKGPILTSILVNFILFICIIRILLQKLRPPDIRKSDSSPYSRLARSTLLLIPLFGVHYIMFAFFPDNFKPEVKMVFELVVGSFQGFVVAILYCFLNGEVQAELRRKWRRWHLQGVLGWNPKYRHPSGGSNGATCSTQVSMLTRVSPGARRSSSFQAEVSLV

INS1(832/13) = experiment: Induction of glucose dependent insulin secretion in rat INS-1 832/13 cells expressing GLP-1R at 5 uM starved for 2 hrs in KRB buffer followed by glucose addition and measured after 90 mins by ELISA; assay type: functional, cell-based
Mus musculus [14] = experiment: Anti-diabetic activity against overnight-fasted male CD1 mouse assessed as reduction in blood glucose concentration at 10 to 30 mg/kg, ip preadministered with compound for 45 mins followed by 2.5 g/kg dextrose addition and measured after 60 mins by iGTT test relative to control; assay type: functional; design: scale not given: the % may be the effect or the level left; settings: dose 10-30 mg/kg, time 105 min, 1.75 h

Glucagon-like peptide 1 receptor (Homo sapiens), sequence (P43220 whole entry): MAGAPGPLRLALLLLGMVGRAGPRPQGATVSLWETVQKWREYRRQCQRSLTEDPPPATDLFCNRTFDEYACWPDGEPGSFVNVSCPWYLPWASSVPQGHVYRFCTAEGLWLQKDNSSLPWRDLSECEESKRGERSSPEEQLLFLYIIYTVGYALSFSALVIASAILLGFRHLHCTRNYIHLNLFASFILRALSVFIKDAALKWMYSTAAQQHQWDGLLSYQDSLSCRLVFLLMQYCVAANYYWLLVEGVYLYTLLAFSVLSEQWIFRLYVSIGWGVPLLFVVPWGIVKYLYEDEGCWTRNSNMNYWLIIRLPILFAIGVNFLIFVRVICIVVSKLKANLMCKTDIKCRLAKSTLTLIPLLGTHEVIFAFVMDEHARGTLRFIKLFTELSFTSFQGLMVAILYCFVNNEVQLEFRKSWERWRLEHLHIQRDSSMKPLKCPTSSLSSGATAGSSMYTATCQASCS
Glucagon receptor (Homo sapiens), sequence (P47871 whole entry): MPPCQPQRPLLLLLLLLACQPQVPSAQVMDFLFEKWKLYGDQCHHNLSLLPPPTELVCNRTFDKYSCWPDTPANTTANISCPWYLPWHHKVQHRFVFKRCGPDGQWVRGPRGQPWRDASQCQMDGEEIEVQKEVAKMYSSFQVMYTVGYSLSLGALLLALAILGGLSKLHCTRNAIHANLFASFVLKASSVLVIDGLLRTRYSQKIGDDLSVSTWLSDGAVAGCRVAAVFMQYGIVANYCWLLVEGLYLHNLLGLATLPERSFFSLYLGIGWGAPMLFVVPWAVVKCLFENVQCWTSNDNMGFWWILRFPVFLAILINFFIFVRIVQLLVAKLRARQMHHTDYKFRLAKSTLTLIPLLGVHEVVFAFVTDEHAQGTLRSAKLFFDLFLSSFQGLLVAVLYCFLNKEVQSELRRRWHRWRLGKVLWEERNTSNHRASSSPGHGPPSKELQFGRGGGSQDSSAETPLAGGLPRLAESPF

| SMILES | Activity [1] | fold change (FC) [2] | further results |
| --- | --- | --- | --- |
| Nc1sc2c(c1C(=O)c1ccc(Cl)cc1)CCSC2 | 112% | > 2 |  |
| CCOC(=O)c1c(N)sc2c1CCN(S(=O)(=O)C1CC1)C2 | 106% | > 2 |  |
| Cc1ccc(C(=O)c2c(N)sc3c2CCN(C(=O)OCc2ccccc2)C3)cc1 | 98.1% | > 2 |  |
| Cc1ccc(C(=O)c2c(N)sc3c2CCC(C)(C)C3)cc1 | 268% | > 2 | Activity (Mus musculus [3]): Active; Activity [4]: Active; fold change (FC) [5]: >2; Activity [6]: Active; Activity (Mus musculus [7]): Active; Activity (Mus musculus [8]): Active; Activity [9]: Active; Activity (Mus musculus [10]): ~75%; Activity [11]: Dose-Dependent Effect; Activity (Mus musculus [12]): Active; Activity [13]: Active; Activity (INS1(832/13)): Active; Activity (Mus musculus [14]): 50% |
| CCOC(=O)c1c(N)sc2c1CCN(C(=O)OCC)C2 | 258% | > 2 |  |
| CCOC(=O)c1c(N)sc2c1CCOC2 | 86.5% | > 2 |  |
| CCOC(=O)c1c(N)sc2c1CCN(C(=O)OCc1ccccc1)C2 | 184% | > 2 |  |
| Nc1sc2c(c1C(=O)c1ccccc1)CCN(S(=O)(=O)C1CC1)C2 | 131% | > 2 |  |
| CCN1CCc2c(sc(N)c2C(=O)c2ccc(C)cc2)C1 | 99.3% | > 2 |  |
| CCOC(=O)c1c(N)sc2c1CCN(CC)C2 | 94.3% | > 2 |  |
| CC1CCc2c(sc(N)c2C(=O)c2ccc(Cl)cc2)C1 (racemic) | 128% | > 2 |  |
| Nc1sc2c(c1C(=O)c1ccc(Cl)cc1)CCOC2 | 177% | > 2 |  |
| CCCC1CCc2c(sc(N)c2C(=O)OCC)C1 (racemic) | 157% | > 2 |  |
| CCOC(=O)c1c(N)sc2c1CCN(C(C)C)C2 | 82.2% | > 2 |  |
| Cc1ccc(C(=O)c2c(N)sc3c2CCSC3)cc1 | 92.5% | > 2 |  |
| CCOC(=O)c1c(N)sc2c1CCC(C(C)C)C2 (racemic) | 247% | > 2 |  |
| Cc1ccc(C(=O)c2c(N)sc3c2CCOC3)cc1 | 118% | > 2 |  |
| CCOC(=O)c1c(N)sc2c1CCC(C(C)(C)C)C2 (racemic) | 195% | > 2 |  |
| Nc1sc2c(c1C(=O)c1ccc(Cl)cc1)CCN(C(=O)OCc1ccccc1)C2 | 155% | > 2 |  |
| CCOC(=O)c1c(N)sc2c1CC(C)(C)CC2 | 133% | > 2 |  |

| SMILES | Activity [1] | fold change (FC) [2] | further results |
| --- | --- | --- | --- |
| CN1CCc2c(sc(N)c2C(=O)c2ccc(Cl)cc2)C1 | 124% | > 2 |  |
| CCOC(=O)N1CCc2c(sc(N)c2C(=O)c2ccc(C)cc2)C1 | 98.1% | > 2 |  |
| CS(=O)(=O)N1CCc2c(sc(N)c2C(=O)c2ccc(Cl)cc2)C1 | 142% | > 2 |  |
| CCOC(=O)N1CCc2c(sc(N)c2C(=O)c2ccccc2)C1 | 233% | > 2 | fold change (FC) [5]: >2; Activity [6]: Active; Activity [11]: Dose-Dependent Effect; Activity (INS1(832/13)): Active |
| CCOC(=O)c1c(N)sc2c1CCC(C)(C)C2 | 164% | > 2 |  |
| CCOC(=O)c1c(N)sc2c1CCN(C(=O)OC(C)(C)C)C2 | 164% | > 2 |  |
| CCOC(=O)c1c(N)sc2c1CCN(C(C)=O)C2 | 147% | > 2 |  |
| CCOC(=O)c1c(N)sc2c1C(C)CCC2 (racemic) | 82% | > 2 |  |
| CCOC(=O)N1CCc2c(sc(N)c2C(=O)c2ccc(Cl)cc2)C1 | 222% | > 2 |  |
| C=CCOC(=O)N1CCc2c(sc(N)c2C(=O)OCC)C1 | 232% | > 2 |  |
| CCOC(=O)c1c(N)sc2c1CCN(C1CC1)C2 | 88.3% | > 2 |  |
| CCOC(=O)c1c(N)sc2c1CCC(C)C2 (racemic) | 159% | > 2 |  |
| C=CCOC(=O)N1CCc2c(sc(N)c2C(=O)c2ccccc2)C1 | 247% | > 2 | fold change (FC) [5]: >2; Activity [6]: Active; Activity [11]: Dose-Dependent Effect; Activity (INS1(832/13)): Active |
| CCOC(=O)c1c(N)sc2c1CCN(C)C2 | 75.7% | > 2 |  |
| CCOC(=O)c1c(N)sc2c1CCSC2 | 192% | > 2 |  |
| CCOC(=O)c1c(N)sc2c1CCC(C(F)(F)F)C2 (racemic) | 183% | > 2 |  |
| CC(=O)N1CCc2c(sc(N)c2C(=O)c2ccccc2)C1 | 231% | > 2 |  |
| CC(=O)N1CCc2c(sc(N)c2C(=O)c2ccc(Cl)cc2)C1 | 239% | > 2 |  |
| CC(=O)N1CCc2c(sc(N)c2C(=O)c2ccc(C)cc2)C1 | 196% | > 2 |  |
| Cc1ccc(C(=O)c2c(N)sc3c2CCC(C)C3)cc1 (racemic) | 242% | > 2 | fold change (FC) [5]: >2; Activity [6]: Active; Activity [11]: Dose-Dependent Effect; Activity (INS1(832/13)): Active |
